# Laboratory results taken from patent US20100029973A1, “Fatty acid analogues for equilibrating bone mineral density” (priority 2005, published 2010).
# Tests used:
# [1] = degradation time in vivo of ω-oxidation-blocked fatty acid analogue; conditions: triple bond at methyl end blocking ω-oxidation
# Text: ω-oxidation is believed to be the main pathway for degradation of the fatty acid analogues as described with a block in the X position. Experiments were thus performed where R′ was changed to block w-oxidation, by introducing a triple bond at the methyl end of the fatty acid analogue. […] This is important for the use of the fatty acid analogues in pharmaceutical preparation, as it may potentiate the effects of the β-oxidizable fatty acid analogues by further slowing down their breakdown.
# [2] = system: femoral BMD; assay: femoral BMD in rats by DXA; type: in vivo, rat; conditions: female Fischer rats, 50 mg/kg body weight, intragastric gavage, 4 months
# Method: Fifty female Fischer rats were divided into 5 groups and were given methocel (control group), Wyeth 14,643, fenofibrate, tetradecylthioacetic acid (TTA) and pioglitazone (50 mg/kg body weight) by intragastric gavage for 4 months. Body weight was registered throughout the study. BMD was measured by double x-ray absorptiometry (DXA). Histomorhometry of femur was performed, and mechanical strength in the femoral shaft and collum femoris was measured.
# [3] = system: preosteoblast cell line MC3T3-E1; assay: release of OPG, RANKL and IL6 from preosteoblast cell line MC3T3-E1; type: cell-based; conditions: preosteoblasts (MC3T3-E1)
# Text: The effect of the PPAR agonists on release of osteoprotegerin (OPG), RANKL and IL6 from the preosteoblast cell line MC3T3-E1 was investigated. […] Wyeth 14643, fenofibrate and TTA were also shown to stimulate OPG release and inhibit IL6 release from preosteoblasts, while no effects on RANKL could be detected.
# [4] = system: preosteoclast cell line RAW264.7; assay: proliferation of preosteoclast cell line RAW264.7; type: cell-based
# [5] = system: human monocytes; assay: differentiation of human monocytes into osteoclasts; type: cell-based
# [6] = system: mitochondrial β-oxidation in the liver; assay: activity of mitochondrial β-oxidation in the liver; conditions: fatty acid analogues with sulphur in 3, 5, 7 position vs palmitic acid control
# Text: Although all fatty acid anagoges with an odd positioning of the β-oxidation blocker X away from the carboxylic end block β-oxidation, the extent of their biological effect may be variable. This is due to the difference in biological degradation time of the various compounds. The inventors have done experiments to show the effect of moving X further from the carboxylic fatty acid end. In these experiments the activity (in nmol/min/mg/protein) of mitochondrial β-oxidation in the liver of fatty acid analogues was measured with sulphur in the 3, 5 and 7 positions relative to the carboxyl end. The activities were 0.81 for sulphur in the 3rd position, 0.61 for sulphur in the 5th position, 0.58 for sulphur in the 7th position, and 0.47 for palmitic acid, the non β-oxidation blocking control. […] However, as the decline is great for going from the 3rd to 5th position, but small going from the 5th to 7th position, it is reasonable to assume that this decline will continue to be less as one moves out the chain, and thus that it will be very far out indeed before no effect (compared to the control) is seen at all.
compound,measurement,setting,value
CC#CCCCCCCCCCCCSCC [3-thia-15-heptadecyn],degradation time in vivo,[1],substantially increased degradation time in vivo
"Cc1cccc(Nc2cc(Cl)nc(SCC(=O)O)n2)c1C [Wyeth 14,643]",change in femoral BMD versus control rats,[2],7%
same,IL6 release,[3],stimulated
same,OPG release,[3],stimulated
same,RANKL release,[3],no effects
same,IL6 release,[3]; listed as Wyeth 14643,inhibit
same,OPG release,[3]; listed as Wyeth 14643,stimulate
same,proliferation of RAW264.7,[4],inhibited the proliferation
same,differentiation of human monocytes into osteoclasts,[5],inhibit the differentiation of human monocytes into osteoclasts in a dose-dependent manner
CC(C)OC(=O)C(C)(C)Oc1ccc(C(=O)c2ccc(Cl)cc2)cc1 [fenofibrate],change in femoral BMD versus control rats,[2],5.7%
CCCCCCCCCCCCCCCC(=O)O [palmitic acid],activity of mitochondrial β-oxidation in the liver,[6],0.47 nmol/min/mg/protein
CCc1ccc(CCOc2ccc(CC3SC(=O)NC3=O)cc2)nc1 (stereo not drawn) [pioglitazone],change in femoral BMD versus control rats,[2],−3%
